The values that follow come from PMC10933438, “Inhibition of urease-mediated ammonia production by 2-octynohydroxamic acid in hepatic encephalopathy” (Nature Communications, 2024).

Experiment [1] has as its target T1, Jack bean urease (Canavalia ensiformis, UniProt P07374). Briefly: cell-free pH-based (phenol red) urease activity assay; delay of half-maximal absorbance at […] inhibitor (ΔT50). The format is biochemical.
Experiment [2] addresses T1, Jack bean urease. The experiment is described as follows: cell-free pH-based (phenol red) urease activity assay; ΔT50 at […] inhibitor. The experiment is classed as biochemical.

T1 sequence (P07374 whole entry, looked up): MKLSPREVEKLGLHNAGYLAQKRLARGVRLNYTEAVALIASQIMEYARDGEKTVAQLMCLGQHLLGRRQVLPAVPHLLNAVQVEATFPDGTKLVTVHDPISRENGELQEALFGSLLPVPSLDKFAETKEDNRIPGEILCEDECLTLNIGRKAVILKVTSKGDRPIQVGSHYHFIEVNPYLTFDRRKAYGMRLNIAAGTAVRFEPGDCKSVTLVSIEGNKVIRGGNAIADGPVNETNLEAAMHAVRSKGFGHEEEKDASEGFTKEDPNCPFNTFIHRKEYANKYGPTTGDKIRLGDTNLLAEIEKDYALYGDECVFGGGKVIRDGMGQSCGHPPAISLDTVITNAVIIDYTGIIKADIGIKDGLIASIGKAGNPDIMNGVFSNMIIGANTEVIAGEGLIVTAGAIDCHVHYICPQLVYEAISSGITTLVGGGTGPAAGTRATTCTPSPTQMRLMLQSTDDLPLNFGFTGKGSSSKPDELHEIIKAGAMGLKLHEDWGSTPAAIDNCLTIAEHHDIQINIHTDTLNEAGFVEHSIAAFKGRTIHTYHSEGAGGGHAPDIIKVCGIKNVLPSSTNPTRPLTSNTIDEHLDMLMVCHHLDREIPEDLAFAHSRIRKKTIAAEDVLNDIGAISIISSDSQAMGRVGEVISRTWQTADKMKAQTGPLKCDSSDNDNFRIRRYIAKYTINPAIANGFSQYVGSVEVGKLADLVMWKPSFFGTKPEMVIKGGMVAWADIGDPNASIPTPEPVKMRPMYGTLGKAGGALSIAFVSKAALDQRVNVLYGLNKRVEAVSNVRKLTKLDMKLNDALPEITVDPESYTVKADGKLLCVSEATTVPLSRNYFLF

As for `CCCCCC#CC(=O)NO` [2-octynoHA, 2-octynohydroxamic acid], on Jack bean urease [1], the “cell-free pH-based (phenol red) urease activity assay; delay of half-maximal abs” value came to 47.9 ± 2.6 min. Consider `CC(=O)NO` [AHA, acetohydroxamic acid], for which the “cell-free pH-based (phenol red) urease activity assay; ΔT50 at 0.1 mM inhibitor” value at Jack bean urease [2] is on record as 2.8 ± 0.6 min.

`CCCCCCCC(=O)NO` [OHA, octanohydroxamic acid]: the “cell-free pH-based (phenol red) urease activity assay; ΔT50 at 0.1 mM inhibitor” value on Jack bean urease [2] came out at 3.0 ± 1.6 min.
